# Data as given in patent publication US20230072683A1, “PYRIDO-PYRIMIDIN DERIVATIVES AND PHARMACEUTICAL COMPOSITION, FOR USE IN PREVENTING OR TREATING PI3 KINASE RELATED DISEASES, COMPRISING SAME AS ACTIVE INGREDIENT” (BORYUNG PHARMACEUTICAL CO., LTD, priority 2019, published 2023).
# Like-named read-outs stand apart in the source and are kept apart here.
# What was measured:
# [1] = molecular target: PI3K-δ (PI3K(p1108/p857) (h)) (Homo sapiens, UniProt O00329); assay: Evaluation of inhibitory activity against PI3K-δ (HTRF kinase assay); type: biochemical; conditions: for inhibition at 0.01 µM: compound concentration 0.01 μM, read-out: EXP_VALUE(% Inhibition) PI3K-δ 0.01 μM; for inhibition at 0.1 µM: read-out: EXP_VALUE(% Inhibition) PI3K-δ 0.1 μM
# Procedure, shortened: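 HTRF read-out (665/620 nm ratio ×10000) used Eu-labelled anti-GST, GST-tagged GRP1 PH domain and streptavidin-allophycocyanin after EDTA/PIP3 stop.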
# [2] = molecular target: DNA-PK(h) (Homo sapiens, UniProt P78527); assay: Evaluation of inhibitory activity against DNA-PK (HTRF kinase assay, GST-cMyc-p53 substrate); type: biochemical; conditions: for inhibition at 0.01 µM: compound concentration 0.01 μM, read-out: EXP_VALUE(% Inhibition) DNA-PK(h) 0.01 μM; for inhibition at 0.1 µM: read-out: EXP_VALUE(% Inhibition) DNA-PK(h) 0.1 μM
# Procedure, shortened: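 p53 Ser15 phosphorylation by human DNA-PK was measured by time-resolved FRET ratio (665/620 nm ×10000) using Eu-labelled anti-phospho-Ser15 and d2 anti-GST antibodies. Substrate GST-cMyc-p53 at 50 μM; Mg/ATP-initiated, 30 min at room temperature, EDTA stop.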
# Chain of PI3K-δ (PI3K(p1108/p857) (h)) (O00329 whole entry, the tested form may be a part): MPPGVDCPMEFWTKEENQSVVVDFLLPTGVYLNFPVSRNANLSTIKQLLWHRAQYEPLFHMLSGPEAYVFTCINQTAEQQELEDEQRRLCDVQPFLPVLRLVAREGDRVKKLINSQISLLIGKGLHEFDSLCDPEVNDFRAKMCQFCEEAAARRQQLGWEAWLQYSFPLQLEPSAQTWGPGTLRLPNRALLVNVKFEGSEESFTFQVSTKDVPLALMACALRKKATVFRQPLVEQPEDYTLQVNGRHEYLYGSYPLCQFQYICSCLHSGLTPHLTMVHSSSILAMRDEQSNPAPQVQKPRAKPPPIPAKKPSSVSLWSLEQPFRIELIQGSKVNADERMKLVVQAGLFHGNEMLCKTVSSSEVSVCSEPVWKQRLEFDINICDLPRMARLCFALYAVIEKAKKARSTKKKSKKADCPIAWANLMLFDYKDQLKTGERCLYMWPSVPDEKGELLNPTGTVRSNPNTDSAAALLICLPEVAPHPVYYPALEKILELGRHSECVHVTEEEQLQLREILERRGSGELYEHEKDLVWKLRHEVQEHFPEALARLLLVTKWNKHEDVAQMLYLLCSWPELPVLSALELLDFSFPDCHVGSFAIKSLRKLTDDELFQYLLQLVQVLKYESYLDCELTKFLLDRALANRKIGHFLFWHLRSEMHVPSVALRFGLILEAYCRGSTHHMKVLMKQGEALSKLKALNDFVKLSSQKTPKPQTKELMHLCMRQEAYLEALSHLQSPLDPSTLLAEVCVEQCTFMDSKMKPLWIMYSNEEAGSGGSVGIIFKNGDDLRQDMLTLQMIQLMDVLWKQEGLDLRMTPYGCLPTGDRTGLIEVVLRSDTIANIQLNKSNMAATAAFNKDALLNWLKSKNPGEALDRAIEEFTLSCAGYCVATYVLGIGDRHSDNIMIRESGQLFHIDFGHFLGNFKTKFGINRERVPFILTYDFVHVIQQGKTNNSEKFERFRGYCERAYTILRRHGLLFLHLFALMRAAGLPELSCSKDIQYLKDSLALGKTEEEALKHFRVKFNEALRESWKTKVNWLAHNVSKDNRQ
# Chain of PI3K-δ (PI3K(p1108/p857) (h)) (P27986 whole entry partner, the tested form may be a part): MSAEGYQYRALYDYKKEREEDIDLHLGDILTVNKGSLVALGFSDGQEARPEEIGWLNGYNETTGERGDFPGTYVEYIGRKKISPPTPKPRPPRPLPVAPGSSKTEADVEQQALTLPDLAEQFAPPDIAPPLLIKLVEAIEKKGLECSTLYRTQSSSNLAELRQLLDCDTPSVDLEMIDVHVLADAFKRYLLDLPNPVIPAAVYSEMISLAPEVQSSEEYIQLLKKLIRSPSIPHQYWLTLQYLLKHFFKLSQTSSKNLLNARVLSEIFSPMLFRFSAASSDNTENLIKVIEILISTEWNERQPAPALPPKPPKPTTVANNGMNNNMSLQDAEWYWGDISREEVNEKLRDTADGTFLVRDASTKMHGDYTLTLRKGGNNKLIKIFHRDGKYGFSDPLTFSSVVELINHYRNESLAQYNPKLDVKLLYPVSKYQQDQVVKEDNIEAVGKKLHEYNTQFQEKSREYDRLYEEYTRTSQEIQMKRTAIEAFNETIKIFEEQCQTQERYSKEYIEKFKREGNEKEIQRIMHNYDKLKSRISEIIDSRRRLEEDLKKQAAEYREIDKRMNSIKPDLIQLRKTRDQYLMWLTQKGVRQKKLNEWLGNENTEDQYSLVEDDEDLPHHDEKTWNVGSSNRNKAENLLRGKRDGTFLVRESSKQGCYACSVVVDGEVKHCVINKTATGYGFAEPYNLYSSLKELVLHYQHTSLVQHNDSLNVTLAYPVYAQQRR
inhibition at 0.01 µM [1],inhibition at 0.01 µM [2],inhibition at 0.1 µM ([1]; compound concentration 0.1 μM),inhibition at 0.1 µM ([2]; compound concentration 0.1 μM),inhibition at 0.1 µM ([1]; compound at 0.1 μM),inhibition at 0.1 µM ([2]; compound at 0.1 μM),SMILES
5%,-1%,,,,,"C[C@H](Nc1ncnc2[nH]ccc(=O)c12)c1c(Cl)c2cccc(Nc3ccccn3)c2c(=O)n1-c1ccccc1 [Example 348, (S)-4-((1-(4-chloro-1-oxo-2-phenyl-8-(pyridin-2-ylamino)-1,2-dihydroisoquinolin-3-yl)ethyl)amino)pyrido[2,3-d]pyrimidin-5(8H)-one]"
80%,87%,96%,98%,,,"C[C@H](Nc1ncnc2[nH]ccc(=O)c12)c1c(Cl)c2cccc(-c3ccc4ncn(C)c4c3)c2c(=O)n1-c1ccccc1 [Example 111, (S)-4-((1-(4-chloro-8-(1-methyl-1H-benzo[d]imidazol-6-yl)-1-oxo-2-phenyl-1,2-dihydroisoquinolin-3-yl)ethyl)amino)pyrido[2,3-d]pyrimidin-5(8H)-one]"
67%,77%,,,,,"CC(C)S(=O)(=O)c1ccc(-c2cccc3c(Cl)c([C@H](C)Nc4ncnc5[nH]ccc(=O)c45)n(-c4ccccc4)c(=O)c23)cc1 [Example 209, (S)-4-((1-(4-chloro-8-(4-(isopropylsulfonyl)phenyl)-1-oxo-2-phenyl-1,2-dihydroisoquinolin-3-yl)ethyl)amino)pyrido[2,3-d]pyrimidin-5(8H)-one]"
68%,58%,,,,,"C[C@H](Nc1ncnc2[nH]ccc(=O)c12)c1c(Cl)c2cccc(-c3cnc(C(C)(C)C)nc3)c2c(=O)n1-c1ccccc1 [Example 208, (S)-4-((1-(8-(2-(tert-butyl)pyrimidin-5-yl)-4-chloro-1-oxo-2-phenyl-1,2-dihydroisoquinolin-3-yl)ethyl)amino)pyrido[2,3-d]pyrimidin-5(8H)-one]"
66%,84%,91%,98%,,,"Cc1ccc(-c2cccc3c(Cl)c([C@H](C)Nc4ncnc5[nH]ccc(=O)c45)n(-c4ccccc4)c(=O)c23)o1 [Example 98, (S)-4-((1-(4-chloro-8-(5-methylfuran-2-yl)-1-oxo-2-phenyl-1,2-dihydroisoquinolin-3-yl)ethyl)amino)pyrido[2,3-d]pyrimidin-5(8H)-one]"
72%,71%,,,,,"CC(C)NC(=O)c1ccc(-c2cccc3c(Cl)c([C@H](C)Nc4ncnc5[nH]ccc(=O)c45)n(-c4ccccc4)c(=O)c23)cc1 [Example 193, (S)-4-(4-chloro-1-oxo-3-(1-((5-oxo-5,8-dihydropyrido[2,3-d]pyrimidin-4-yl)amino)ethyl)-2-phenyl-1,2-dihydroisoquinolin-8-yl)-N-isopropylbenzamide]"
67%,61%,,,,,"C[C@H](Nc1ncnc2[nH]ccc(=O)c12)c1c(Cl)c2cccc(-c3cnc4nncn4c3)c2c(=O)n1-c1ccccc1 [Example 40, (S)-4-((1-(8-([1,2,4]triazolo[4,3-a]pyrimidin-6-yl)-4-chloro-1-oxo-2-phenyl-1,2-dihydroisoquinolin-3-yl)ethyl)amino)pyrido[2,3-d]pyrimidin-5(8H)-one]"
,,,,37%,36%,"C[C@H](Nc1ncnc2[nH]ccc(=O)c12)c1c(Cl)c2cccc(S(=O)(=O)c3ncccn3)c2c(=O)n1-c1ccccc1 [Example 420, (S)-4-((1-(4-chloro-1-oxo-2-phenyl-8-(pyrimidin-2-ylsulfonyl)-1,2-dihydroisoquinolin-3-yl)ethyl)amino)pyrido[2,3-d]pyrimidin-5(8H)-one]"
41%,23%,85%,69%,,,"COc1ccccc1Oc1cccc2c(Cl)c([C@H](C)Nc3ncnc4[nH]ccc(=O)c34)n(-c3ccccc3)c(=O)c12 [Example 366, (S)-4-((1-(4-chloro-8-(2-methoxyphenoxy)-1-oxo-2-phenyl-1,2-dihydroisoquinolin-3-yl)ethyl)amino)pyrido[2,3-d]pyrimidin-5(8H)-one]"
80%,39%,102%,76%,,,"C[C@H](Nc1ncnc2[nH]ccc(=O)c12)c1c(Cl)c2cccc(C(=O)O)c2c(=O)n1-c1ccccc1 [Example 290, (S)-4-chloro-1-oxo-3-(1-((5-oxo-5,8-dihydropyrido[2,3-d]pyrimidin-4-yl)amino)ethyl)-2-phenyl-1,2-dihydroisoquinoline-8-carboxylic acid]"
89%,60%,,,,,"C[C@H](Nc1ncnc2[nH]ccc(=O)c12)c1c(Cl)c2cccc(-c3ccc4nncn4c3)c2c(=O)n1-c1ccccc1 [Example 37, (S)-4-((1-(8-([1,2,4]triazolo[4,3-a]pyridin-6-yl)-4-chloro-1-oxo-2-phenyl-1,2-dihydroisoquinolin-3-yl)ethyl)amino)pyrido[2,3-d]pyrimidin-5(8H)-one]"
98%,69%,,,,,"C[C@H](Nc1ncnc2[nH]ccc(=O)c12)c1c(Cl)c2cccc(-c3cnc4ccccc4c3)c2c(=O)n1-c1ccccc1 [Example 213, (S)-4-((1-(4-chloro-1-oxo-2-phenyl-8-(quinolin-3-yl)-1,2-dihydroisoquinolin-3-yl)ethyl)amino)pyrido[2,3-d]pyrimidin-5(8H)-one]"
,,,,33%,53%,"C[C@H](Nc1ncnc2[nH]ccc(=O)c12)c1c(Cl)c2cccc(Oc3cccnc3)c2c(=O)n1-c1ccccc1 [Example 437, (S)-4-((1-(4-chloro-1-oxo-2-phenyl-8-(pyridin-3-yloxy)-1,2-dihydroisoquinolin-3-yl)ethyl)amino)pyrido[2,3-d]pyrimidin-5(8H)-one]"
49%,16%,91%,65%,,,"C[C@H](Nc1ncnc2[nH]ccc(=O)c12)c1c(Cl)c2cccc(-c3ccc(Cl)cc3)c2c(=O)n1-c1ccccc1 [Example 84, (S)-4-((1-(4-chloro-8-(4-chlorophenyl)-1-oxo-2-phenyl-1,2-dihydroisoquinolin-3-yl)ethyl)amino)pyrido[2,3-d]pyrimidin-5(8H)-one]"
,,,,29%,46%,"CCC[S@+]([O-])c1cccc2c(Cl)c([C@H](C)Nc3ncnc4[nH]ccc(=O)c34)n(-c3ccccc3)c(=O)c12 [Example 396, 4-(((S)-1-(4-chloro-1-oxo-2-phenyl-8-((S)-propylsulfinyl)-1,2-dihydroisoquinolin-3-yl)ethyl)amino)pyrido[2,3-d]pyrimidin-5(8H)-one]"
,,,,7%,47%,"C[C@H](Nc1ncnc2[nH]ccc(=O)c12)c1c(Cl)c2cccc([S+]([O-])c3ncccn3)c2c(=O)n1-c1ccccc1 (stereo partly drawn) [Example 419, 4-(((1S)-1-(4-chloro-1-oxo-2-phenyl-8-(pyrimidin-2-ylsulfinyl)-1,2-dihydroisoquinolin-3-yl)ethyl)amino)pyrido[2,3-d]pyrimidin-5(8H)-one]"
101%,67%,,,,,"CCOc1ncc(-c2cccc3c(Cl)c([C@H](C)Nc4ncnc5[nH]ccc(=O)c45)n(-c4ccccc4)c(=O)c23)cn1 [Example 188, (S)-4-((1-(4-chloro-8-(2-ethoxypyrimidin-5-yl)-1-oxo-2-phenyl-1,2-dihydroisoquinolin-3-yl)ethyl)amino)pyrido[2,3-d]pyrimidin-5(8H)-one]"
75%,12%,103%,75%,,,"C[C@H](Nc1ncnc2[nH]ccc(=O)c12)c1c(Cl)c2cccc(-c3ccc(-c4ccncc4)cc3)c2c(=O)n1-c1ccccc1 [Example 105, (S)-4-((1-(4-chloro-1-oxo-2-phenyl-8-(4-(pyridin-4-yl)phenyl)-1,2-dihydroisoquinolin-3-yl)ethyl)amino)pyrido[2,3-d]pyrimidin-5(8H)-one]"
52%,23%,,,,,"C[C@H](Nc1ncnc2[nH]ccc(=O)c12)c1c(Cl)c2cccc(C(=O)N3CCOCC3)c2c(=O)n1-c1ccccc1 [Example 286, (S)-4-((1-(4-chloro-8-(morpholine-4-carbonyl)-1-oxo-2-phenyl-1,2-dihydroisoquinolin-3-yl)ethyl)amino)pyrido[2,3-d]pyrimidin-5(8H)-one]"
11%,15%,,,,,"C[C@H](Nc1ncnc2[nH]ccc(=O)c12)c1c(Cl)c2cccc(C(O)C(C)(C)C)c2c(=O)n1-c1ccccc1 (stereo partly drawn) [Example 357, 4-(((1S)-1-(4-chloro-8-(1-hydroxy-2,2-dimethylpropyl)-1-oxo-2-phenyl-1,2-dihydroisoquinolin-3-yl)ethyl)amino)pyrido[2,3-d]pyrimidin-5(8H)-one]"
,,,,84%,17%,"C[C@H](Nc1ncnc2[nH]ccc(=O)c12)c1c(Cl)c2cccc(S(=O)(=O)c3ccc(Cl)cc3)c2c(=O)n1-c1ccccc1 [Example 393, (S)-4-((1-(4-chloro-8-((4-chlorophenyl)sulfonyl)-1-oxo-2-phenyl-1,2-dihydroisoquinolin-3-yl)ethyl)amino)pyrido[2,3-d]pyrimidin-5(8H)-one]"
